What was measured:
Assay type in all cases: cell-based
[1] = tested on: Escherichia coli; assay: Traditional culture-based antimicrobial susceptibility test
From the text: Table 3 illustrates the results of an example antimicrobial agent susceptibility test of the current application versus a traditional culture-based antimicrobial agent susceptibility test for multiple Escherichia coli isolates, in accordance with one or more embodiments of the disclosure. These specimens underwent extraction or DNA purification prior to PCR. As in Tables 1 and 2, the results of the test of the current application are similar to the results from the traditional test. […]
Table 8 illustrates the results of an example antimicrobial agent susceptibility test of the current application versus a traditional culture-based antimicrobial agent susceptibility test for a low level positive with <10,000 cells/mL in the original specimen. These specimens were tested with direct PCR (e.g., no extraction DNA purification step prior to PCR) after 16 hours of incubation. As in Tables 1, 2, 3, 5, and 7, the results of the test are similar to the traditional test. […]

[2] = tested on: pathogens of clinical samples; assay: Molecular phenotypic antimicrobial susceptibility test of clinical samples, extraction DNA purification step prior to PCR (Table 6)
Outline: (§1)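 Patient specimens in boric acid preservative were culture-incubated, diluted to 0.5 McFarland and exposed for 12-16 hours to antimicrobials in broth at their sensitivity breakpoint concentration(s), with a no-drug well for pathogen load. Growth was then measured by semi-quantitative PCR, either after DNA purification (e.g. magnetic beads) or directly after lysis-buffer treatment without extraction.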

[3] = tested on: pathogens of clinical samples; assay: Molecular phenotypic antimicrobial susceptibility test of clinical samples, direct PCR without a separate DNA purification step (Table 6)
Outline: as §1

[4] = tested on: Escherichia coli; assay: Molecular phenotypic antimicrobial susceptibility test (extraction or DNA purification prior to PCR)
Outline: as §1

[5] = E. coli, clinical sample of r10-r24
[6] = E. coli, clinical sample of r158-r172
[7] = E. faecalis, clinical sample of r93-r99
[8] = E. faecalis, clinical sample of r100-r106
[9] = E. faecalis, clinical sample of r107-r113
[10] = E. faecalis, clinical sample of r114-r120
[11] = E. faecalis, clinical sample of r151-r157
[12] = K. aerogenes, clinical sample of r136-r150
[13] = K. pneumoniae, clinical sample of r121-r135
[14] = M. morganii, clinical sample of r55-r69
[15] = M. morganii, clinical sample of r70-r84
[16] = P. mirabilis, clinical sample of r25-r39
[17] = P. mirabilis, clinical sample of r40-r54

C[C@@H]1O[C@@H]1P(=O)(O)O [Fosfomycin]
Traditional Culture Results ([1]; E. coli #1 - WDCM 00090 - 6.2×E3): Sensitive | Traditional Culture Results ([1]; E. coli #2 - WDCM 00090 - 6.2×E3): Sensitive | Molecular Antibiotic Susceptibility Result [2, 5]: Sensitive (Antimicrobial wells with pathogen load detected below the control wells (typically >2 cycle thresholds later) may be reported as Sensitive) | Ct ([2]; E. coli, clinical sample of r10-r24, Ct Control Avg 18.112): 28.111 | Molecular Antibiotic Susceptibility Result [2, 6]: Sensitive (Antimicrobial wells with pathogen load detected below the control wells (typically >2 cycle thresholds later) may be reported as Sensitive) | Ct ([2]; E. coli, clinical sample of r158-r172, Ct Control Avg 20.146): 30.261 | Molecular Antibiotic Susceptibility Result [2, 7]: Sensitive (Antimicrobial wells with pathogen load detected below the control wells (typically >2 cycle thresholds later) may be reported as Sensitive) | Ct ([2]; E. faecalis, clinical sample of r93-r99, Ct Control Avg 22.987): 35.358 | Molecular Antibiotic Susceptibility Result [2, 8]: sensitive | Ct ([2]; E. faecalis, clinical sample of r100-r106, Ct Control Avg 23.073): 36.898 | Molecular Antibiotic Susceptibility Result [2, 9]: Resistant | Ct ([2]; E. faecalis, clinical sample of r107-r113, Ct Control Avg 22.144): 20.142 | Molecular Antibiotic Susceptibility Result [2, 10]: Sensitive (Antimicrobial wells with pathogen load detected below the control wells (typically >2 cycle thresholds later) may be reported as Sensitive) | Ct ([2]; E. faecalis, clinical sample of r114-r120, Ct Control Avg 20.822): 30.598 | Molecular Antibiotic Susceptibility Result [2, 11]: Sensitive (Antimicrobial wells with pathogen load detected below the control wells (typically >2 cycle thresholds later) may be reported as Sensitive) | Ct ([2]; E. faecalis, clinical sample of r151-r157, Ct Control Avg 20.56): 37.968 | Molecular Antibiotic Susceptibility Result [2, 12]: Sensitive (Antimicrobial wells with pathogen load detected below the control wells (typically >2 cycle thresholds later) may be reported as Sensitive) | Ct ([2]; K. aerogenes, clinical sample of r136-r150, Ct Control Avg 19.994): 25.008 | Molecular Antibiotic Susceptibility Result [2, 13]: Resistant | Ct ([2]; K. pneumoniae, clinical sample of r121-r135, Ct Control Avg 24.272): 18.711 | Molecular Antibiotic Susceptibility Result [2, 14]: Sensitive (Antimicrobial wells with pathogen load detected below the control wells (typically >2 cycle thresholds later) may be reported as Sensitive) | Ct ([2]; M. morganii, clinical sample of r55-r69, Ct Control Avg 28.86): 31.935 | Molecular Antibiotic Susceptibility Result [2, 15]: Sensitive (Antimicrobial wells with pathogen load detected below the control wells (typically >2 cycle thresholds later) may be reported as Sensitive) | Ct ([2]; M. morganii, clinical sample of r70-r84, Ct Control Avg 27.053): 37.955 | Molecular Antibiotic Susceptibility Result [2, 16]: Sensitive (Antimicrobial wells with pathogen load detected below the control wells (typically >2 cycle thresholds later) may be reported as Sensitive) | Ct ([2]; P. mirabilis, clinical sample of r25-r39, Ct Control Avg 26.064): 27.051 | Molecular Antibiotic Susceptibility Result [2, 17]: Sensitive (Antimicrobial wells with pathogen load detected below the control wells (typically >2 cycle thresholds later) may be reported as Sensitive) | Ct ([2]; P. mirabilis, clinical sample of r40-r54, Ct Control Avg 26.987): 31.981 | Molecular Antibiotic Susceptibility Result [3, 5]: Sensitive (Antimicrobial wells with pathogen load detected below the control wells (typically >2 cycle thresholds later) may be reported as Sensitive) | Ct ([3]; E. coli, clinical sample of r10-r24, Ct control avg 12.97): 25.481 | Molecular Antibiotic Susceptibility Result [3, 6]: Sensitive (Antimicrobial wells with pathogen load detected below the control wells (typically >2 cycle thresholds later) may be reported as Sensitive) | Ct ([3]; E. coli, clinical sample of r158-r172, Ct control avg 12.894): 27.932 | Molecular Antibiotic Susceptibility Result [3, 7]: Sensitive (Antimicrobial wells with pathogen load detected below the control wells (typically >2 cycle thresholds later) may be reported as Sensitive) | Ct ([3]; E. faecalis, clinical sample of r93-r99, Ct control avg 22.011): 30.578 | Molecular Antibiotic Susceptibility Result [3, 8]: sensitive | Ct ([3]; E. faecalis, clinical sample of r100-r106, Ct control avg 21.027): 33.882 | Molecular Antibiotic Susceptibility Result [3, 9]: Resistant | Ct ([3]; E. faecalis, clinical sample of r107-r113, Ct control avg 20.529): 19.527 | Molecular Antibiotic Susceptibility Result [3, 10]: Sensitive (Antimicrobial wells with pathogen load detected below the control wells (typically >2 cycle thresholds later) may be reported as Sensitive) | Ct ([3]; E. faecalis, clinical sample of r114-r120, Ct control avg 20.909): 27.178 | Molecular Antibiotic Susceptibility Result [3, 11]: Sensitive (Antimicrobial wells with pathogen load detected below the control wells (typically >2 cycle thresholds later) may be reported as Sensitive) | Ct ([3]; E. faecalis, clinical sample of r151-r157, Ct control avg 18.551): 32.048 | Molecular Antibiotic Susceptibility Result [3, 12]: Sensitive (Antimicrobial wells with pathogen load detected below the control wells (typically >2 cycle thresholds later) may be reported as Sensitive) | Ct ([3]; K. aerogenes, clinical sample of r136-r150, Ct control avg 13.854): 19.581 | Molecular Antibiotic Susceptibility Result [3, 13]: Resistant | Ct ([3]; K. pneumoniae, clinical sample of r121-r135, Ct control avg […]): 14.895 | Molecular Antibiotic Susceptibility Result [3, 14]: Sensitive (Antimicrobial wells with pathogen load detected below the control wells (typically >2 cycle thresholds later) may be reported as Sensitive) | Ct ([3]; M. morganii, clinical sample of r55-r69, Ct control avg 12.09): 18.368 | Molecular Antibiotic Susceptibility Result [3, 15]: Sensitive (Antimicrobial wells with pathogen load detected below the control wells (typically >2 cycle thresholds later) may be reported as Sensitive) | Ct ([3]; M. morganii, clinical sample of r70-r84, Ct control avg 11.677): 28.123 | Molecular Antibiotic Susceptibility Result [3, 16]: Sensitive (Antimicrobial wells with pathogen load detected below the control wells (typically >2 cycle thresholds later) may be reported as Sensitive) | Ct ([3]; P. mirabilis, clinical sample of r25-r39, Ct control avg 11.801): 26.9 | Molecular Antibiotic Susceptibility Result [3, 17]: Sensitive (Antimicrobial wells with pathogen load detected below the control wells (typically >2 cycle thresholds later) may be reported as Sensitive) | Ct ([3]; P. mirabilis, clinical sample of r40-r54, Ct control avg 10.06): 27.935

O=C(O)c1cn(C2CC2)c2cc(N3CCNCC3)c(F)cc2c1=O [Ciprofloxacin]
Ct at Sensitive Breakpoint ([4]; E. coli isolate 1, Ct at control (average) 21.238): 20.351 | Molecular Antimicrobial Susceptibility Result ([4]; E. coli isolate 1, at sensitive breakpoint): Resistant | Ct at Sensitive Breakpoint ([4]; E. coli isolate 2, Ct at control (average) 21.270): 19.988 | Molecular Antimicrobial Susceptibility Result ([4]; E. coli isolate 2, at sensitive breakpoint): Resistant | Ct at Sensitive Breakpoint ([4]; E. coli isolate 3, Ct at control (average) 22.0995): 21.394 | Molecular Antimicrobial Susceptibility Result ([4]; E. coli isolate 3, at sensitive breakpoint): Resistant | Ct at Sensitive Breakpoint ([4]; E. coli isolate 4, Ct at control (average) 17.5733): 17.68 | Molecular Antimicrobial Susceptibility Result ([4]; E. coli isolate 4, at sensitive breakpoint): Resistant | Ct at Sensitive Breakpoint ([4]; E. coli isolate 5, Ct at control (average) 21.0933): 33.02 | Molecular Antimicrobial Susceptibility Result ([4]; E. coli isolate 5, at sensitive breakpoint): Sensitive (Antimicrobial wells with pathogen load detected below the control wells (typically >2 cycle thresholds later) may be reported as Sensitive) | Traditional Culture Result ([1]; E. coli isolate 1 (Table 3)): Resistant | Traditional Culture Result ([1]; E. coli isolate 2 (Table 3)): Resistant | Traditional Culture Result ([1]; E. coli isolate 3 (Table 3)): Resistant | Traditional Culture Result ([1]; E. coli isolate 4 (Table 3)): Resistant | Traditional Culture Result ([1]; E. coli isolate 5 (Table 3)): Sensitive | Traditional Culture Result ([1]; E. coli isolate JJ1887): Resistant

Reference: US20250290117A1, “MOLECULAR PHENOTYPIC ANTIMICROBIAL SUSCEPTIBILITY TESTING” (priority 2024, published 2025)
